Water solubility and pKa data for one compound are collected here from patent US20090196861A1, “Biocompatible Latent Emulsifiers” (BIOAVAILABILITY, INC., priority 2005, published 2009).

A short description of series [1]: Water solubility at neutral pH. It counts as physicochemical. To be noted: inferred from pKa. An excerpt: Rudnic et al. point out that short chain fatty acids are ionized at neutral pH, giving them a […] solubility, and imply that long chain fatty acids are not ionized and, thus, are even less soluble in water. […] Further, medium to long chain (C8 to C22) fatty acids have very limited water solubility; when mixing with water these fatty acids tend to separate from water completely just as oil or fat do.

The conditions of series [2]: measured to be as high as (Kanicky, 2002); cited from earlier work.

Where only a bound is given, the exact number is not on record here.

As for `CCCCCCCC/C=C\CCCCCCCC(=O)O` [oleic acid], the water solubility entry in series [1] is “essentially water insoluble”. In addition, the pKa in series [2] was at most 9.85.

Usually pKa stands for the pH at which an ionisable group is half protonated.
